From patent US20160033531A1, “METHOD AND COMPOSITIONS FOR DETECTING BINDING TO THE PREGNANE X RECEPTOR” (ST. JUDE CHILDREN'S RESEARCH HOSPITAL, priority 2013, published 2016)
Marks after values point to notes of the source that are not given here.

Key:
hPXR [1] = biological target: T1, hPXR (Homo sapiens, UniProt O75469); conditions: cited from earlier work; for Activity (Fluormone PXR (SXR) Green as Probe), % at single concentration: 1000 μM, published report (Lau et al.)
T1 construct: literature Invitrogen
T1 sequence (O75469 1-434): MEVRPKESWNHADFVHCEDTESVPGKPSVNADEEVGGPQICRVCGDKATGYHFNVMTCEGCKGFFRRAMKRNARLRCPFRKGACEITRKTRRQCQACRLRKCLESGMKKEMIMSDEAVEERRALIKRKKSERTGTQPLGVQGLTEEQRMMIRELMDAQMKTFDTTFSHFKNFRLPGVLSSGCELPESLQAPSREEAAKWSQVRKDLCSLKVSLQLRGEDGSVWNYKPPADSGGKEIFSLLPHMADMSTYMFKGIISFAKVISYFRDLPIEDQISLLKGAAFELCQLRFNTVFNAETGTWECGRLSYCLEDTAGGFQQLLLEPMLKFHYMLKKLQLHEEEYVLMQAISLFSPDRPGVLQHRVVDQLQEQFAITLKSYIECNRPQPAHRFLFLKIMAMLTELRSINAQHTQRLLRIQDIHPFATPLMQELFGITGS

hPXR [2] = biological target: T1, hPXR; test: Invitrogen hPXR TR-FRET binding kit, Fluormone PXR (SXR) Green as probe (published reports); conditions: calculated from published data by equation 2
[3] = Solubility of test compound in the TR-FRET assay; conditions: 100 μM
GST-PXRLBD = biological target: T2, GST-PXRLBD (Homo sapiens, UniProt O75469); test: Interaction of BODIPY Fl-vindoline with GST-PXRLBD, Kd from specific binding curve; conditions: buffer 50 mM Tris, 50 mM KCl, 1 mM CHAPS, 0.1 mg/mL BSA, 0.05 mM DTT, pH 7.5
T2 construct: GST (N)
T2 sequence (O75469 146-433 limits assumed): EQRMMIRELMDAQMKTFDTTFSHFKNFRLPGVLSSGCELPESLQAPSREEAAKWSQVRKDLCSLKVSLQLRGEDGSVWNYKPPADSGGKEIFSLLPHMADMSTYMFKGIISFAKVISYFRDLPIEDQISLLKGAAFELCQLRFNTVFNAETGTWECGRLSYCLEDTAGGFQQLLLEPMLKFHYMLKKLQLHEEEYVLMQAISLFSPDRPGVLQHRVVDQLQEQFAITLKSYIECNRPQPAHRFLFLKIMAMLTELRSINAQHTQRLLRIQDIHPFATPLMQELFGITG
Procedure: Assay was performed using a buffer solution containing 50 mM Tris, 50 mM KCl, 1 mM CHAPS, 0.1 mg/mL BSA, and 0.05 mM DTT (pH=7.5).

For `CC1C(=O)OC2C(O)C34C5CC(C(C)(C)C)C36C(OC(=O)C6O)OC4(C(=O)O5)C12O` (stereo not drawn) [Ginkgolide B, ginkgolide B], the “Activity (Fluormone PXR (SXR) Green as Probe), % at single concentration” value (hPXR [1]) is given as 48% (1000 μM)^g.

For `Clc1ccccc1C(c1ccccc1)(c1ccccc1)n1ccnc1` [Clotrimazole, clotrimazole], the Ki (hPXR [2]) is listed as 1 µM, the IC50 (hPXR [1]; values from published reports, read-out: IC50 (Fluormone PXR (SXR) Green as Probe)) is listed as 2 µM and the “Solubility in the assay” value [3] is listed as “incomplete solubility”.

In the case of `CC[C@]12C=CCN3CC[C@@]4(c5ccc(OC)cc5N(C)[C@H]4[C@@](O)(C(=O)OC)[C@@H]1OC(=O)CCC1=[N+]4C(C=C1)Cc1c(C)cc(C)n1[B-]4(F)F)[C@@H]32` (stereo partly drawn) [BODIPY Fl-vindoline, BODIPY FL vindoline], the Kd (GST-PXRLBD) is reported as 0.256 µM.

For `C[C@@H]1C(=O)O[C@H]2C[C@@]34[C@H]5C[C@@H](C(C)(C)C)[C@]36[C@@H](OC(=O)[C@@H]6O)O[C@@]4(C(=O)O5)[C@]21O` [Ginkgolide A, ginkgolide A], the “Activity (Fluormone PXR (SXR) Green as Probe), % at single concentration” value (hPXR [1]) is given as 54% (1000 μM)^g.
